Source: EP4168403B1 (priority 2020, dated 2021)
Entries after “also recorded” stand apart in the source; their conditions may differ.

Tests used:
[1] = system: voltage-gated Ca^2+ channels (VGCC); assay: Calcium channel antagonist assay (K+-evoked cytosolic Ca2+, Fluo-4); type: cell-based; details: SH-SY5Y cells, K+ 70 mM, mean ± SEM, read-out: IC50 (µM) Calcium channels blockade
Procedure: The cytosolic Ca^2+ has been measured in SH-SY5Y cells. SH-SY5Y cells were maintained similarly to what was previously described^30. Free cytosolic Ca^2+ was measured using the fluorescent Ca^2+ indicator Fluo-4/AM (Fluo-4 acetomethoxyester). SH-SY5Y cells were seeded onto 96-well black plates at a density of 10^5 cells per well, achieving confluence after 48 h. Cells were washed with Krebs-Hepes solution (KH, in mM: 144 NaCl, 5.9 KCl, 1.2 MgCl2, 2 CaCl2, 11 D-glucose, 10 HEPES, pH 7.4). Cells were loaded with 10 µM Fluo-4/AM and 0.2% pluronic acid in KH and incubated for 45 min at 37 °C in the dark. Then, cells were washed twice with KH to remove the excess of probe. Tested compounds were incubated 10 min before K+ 70 mM was applied to evoke the increment of cytosolic Ca^2+. To normalize Fluo-4 signals, Triton X-100 (5%) and 1 M MnCl2 were applied to register both maximal and minimal fluorescence, respectively. The experiments were analyzed at excitation and emission wavelengths of 485 and 520 nm, respectively, and fluorescence was measured in a fluorescence microplate reader (FLUOstar Optima, BMG, Germany). Data were calculated as a percentage of Fmax - Fmin.
The blocking effect of the depolarization-induced Ca^2+ uptake was investigated in SH-SY5Y neuroblastoma cells stimulated with an extracellular concentration of K+ 70 mM, which induces the cell Ca^2+ levels elevation by opening voltage-gated Ca^2+ channels (VGCC), monitored with the Ca^2+-sensitive fluorescent dye Fluo-4. Nifedipine was used as positive standard.

SH-SY5Y cells = assay: Effect on Aβ25-35 peptide-induced cell death (MTT assay); type: cell-based; details: Homo sapiens, read-out: increase in cell viability
Procedure: Lyophilized synthetic Aβ25-35 peptide was dissolved in sterile water at a concentration of 2 mM, aliquoted and kept at -80°C until use. Aliquots were diluted in culture medium to achieve a final concentration of 30 µM and incubated for 72h at 37°C to form aggregated amyloid. SH-SY5Y cells were seeded in 96-well culture plates at a density of 12 × 10^4 cells per well in DMEM/F12 (1 :1) medium supplemented with 10% fetal bovine serum, 1X non-essential amino acids, 100 units/ml penicillin and 10 mg/ml streptomycin (Dutscher, France). Cultures were kept under a CO2/air (5%/95%) humidified atmosphere at 37°C. After 24h of incubation, the cultures were treated with 100 µl of the compound BIGI-3h or DMSO (0.1%) in DMEM/F12 (1:1) medium supplemented with 1% fetal bovine serum, 1X non-essential amino acids, 100 units/ml penicillin and 10 mg/ml streptomycin. After 24h of treatment, cells were co-incubated with Aβ25-35 peptide (30 µM) with or without the compound BIGI-3h for an additional period of 24h. MTT assay, a common colorimetric assay for assessing cell metabolic activity, was performed as described below.
The cell viability was assessed by measuring the reduction of MTT (3-(4,5-dimethylthiazol-2-yl)-2,5-diphenyltetrazolium bromide) to a formazan product. […] The absorbance at 570 nm and 630 nm (background) was measured using a microplate reader.

human AChE = target: T1, human AChE (Homo sapiens, UniProt P22303); assay: Kinetic study of inhibition of AChE hydrolysis (Lineweaver-Burk, nonlinear regression); type: biochemical; details: for Ki: substrate acetylthiocholine; for type of inhibition: sum-of-squares F-test, p<0.05
T1 construct: purchased Sigma-Aldrich (Prague, Czech Republic); host or cells: human red blood cells
Procedure: To obtain insight into the interactions of BIGI-3h and BIGI-3e with human AChE, a kinetic study was conducted. Substrate concentration - enzyme velocity curves were recorded in the presence of different concentrations of the tested compounds. […] The type of inhibition and corresponding inhibition constants (Ki and Ki') were determined by the nonlinear regression analysis of data. Results for each type model of inhibition (competitive, non-competitive, uncompetitive and mixed) were compared with sum-of-squares F-test. […] BIGI-3h and BIGI-3e bind to both free AChE and AChE-substrate complex, affecting the binding of substrate in the active site of enzyme, interacting with its allosteric peripheral anionic site. Interaction with this site causes conformational changes of the enzyme resulting also in changes of its active site. […]. Measured values are consistent with the IC50 values for AChE. It appears that both tested compounds tend to bind free AChE more than enzyme-substrate complex.

[2] = Prediction of blood-brain barrier penetration (PAMPA); type: in vitro ADME; details: for CNS: PAMPA prediction of ability to cross the blood-brain barrier
Procedure: To predict passive blood-brain penetration of novel compounds modification of the parallel artificial membrane permeation (PAMPA) assay has been used based on reported protocol^38, 39. The filter membrane of the donor plate was coated with PBL (Polar Brain Lipid, Avanti, USA) in dodecane (4 µl of 20 mg/ml PBL in dodecane) and the acceptor well was filled with 300 µl of PBS pH 7.4 buffer (VD). Tested compounds were dissolved first in DMSO (0.5% (V/V) final) and that diluted with PBS pH 7.4 to reach the final concentration 50 µM in the donor well. 300 µl of the donor solution was added to the donor wells (VA) and the donor filter plate was carefully put on the acceptor plate so that coated membrane was "in touch" with both donor solution and acceptor buffer. Test compound diffused from the donor well through the lipid membrane (Area=0.28cm^2) to the acceptor well. The concentration of the drug in both donor and the acceptor wells was assessed after 3, 4, 5 and 6 hours of incubation in quadruplicate using the UV plate reader Synergy HT (Biotek, USA) at the maximum absorption wavelength and the standard curve for each compound. […]

[3] = binding to AChE-substrate complex

T1 sequence (P22303 32-617 isoform P22303-2 limits assumed): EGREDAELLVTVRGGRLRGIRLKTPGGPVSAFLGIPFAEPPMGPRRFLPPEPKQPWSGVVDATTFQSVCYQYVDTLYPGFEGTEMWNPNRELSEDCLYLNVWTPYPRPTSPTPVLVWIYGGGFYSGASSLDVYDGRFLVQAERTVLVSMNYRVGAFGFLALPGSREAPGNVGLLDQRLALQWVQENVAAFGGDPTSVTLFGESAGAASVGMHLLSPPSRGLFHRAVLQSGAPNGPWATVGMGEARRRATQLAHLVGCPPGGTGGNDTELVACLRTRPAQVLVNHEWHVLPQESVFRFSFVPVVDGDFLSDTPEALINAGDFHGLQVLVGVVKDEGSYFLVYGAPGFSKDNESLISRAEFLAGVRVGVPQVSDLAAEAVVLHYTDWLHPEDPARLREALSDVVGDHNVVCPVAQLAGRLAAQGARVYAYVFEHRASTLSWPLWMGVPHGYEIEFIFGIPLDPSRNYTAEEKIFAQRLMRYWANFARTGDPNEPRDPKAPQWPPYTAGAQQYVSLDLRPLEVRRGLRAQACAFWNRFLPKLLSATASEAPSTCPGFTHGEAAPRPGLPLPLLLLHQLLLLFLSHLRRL

| Structure (SMILES) | IC50 [1] [µM] | viability at 10 µM (SH-SY5Y cells) [%] | viability at 20 µM (SH-SY5Y cells) [%] | Ki (human AChE; [3]) [µM] | Ki (human AChE; binding to free AChE) [µM] | type of inhibition (human AChE) | CNS [2] | Papp at 50 µM ([2]; PAMPA, PBS pH 7.4, 50 µM in donor well, read-out: Pe ± SEM) [×10⁻⁶ cm/s] |
| --- | --- | --- | --- | --- | --- | --- | --- | --- |
| CCOC(=O)C1=C(C)N(CCC2CCN(Cc3ccccc3)CC2)C(=O)NC1c1coc2c(Cl)cc(Cl)cc2c1=O (racemic) [BIGI-3h, ethyl 1-(2-(1-benzylpiperidin-4-yl)ethyl)-4-(6,8-dichloro-4-oxo-4H-chromen-3-yl)-6-methyl-2-oxo-1,2,3,4-tetrahydropyrimidine-5-carboxylate] | 1.4 ± 0.4 | 40.4 | 61.4 | 0.0776 ± 0.0164 | 0.0215 ± 0.00519 | mixed non-competitive | best ability to cross the BBB; also recorded: CNS (+) | 4 ± 0.3 |
| CCOC(=O)C1=C(C)N(CCC2CCN(Cc3ccccc3)CC2)C(=O)NC1c1coc2ccc(Br)cc2c1=O (stereo not drawn) [BIGI-3e, ethyl 1-(2-(1-benzylpiperidin-4-yl)ethyl)-4-(6-bromo-4-oxo-4H-chromen-3-yl)-6-methyl-2-oxo-1,2,3,4-tetrahydropyrimidine-5-carboxylate] | 1.9 ± 0.6 |  |  | 0.0895 ± 0.0125 | 0.051 ± 0.0127 | mixed non-competitive | CNS (+/-) |  |
| CCOC(=O)C1=C(C)N(CCCC2CCN(Cc3ccccc3)CC2)C(=O)NC1c1coc2cc(CC)ccc2c1=O (stereo not drawn) [BIGI-3k, ethyl 1-(3-(1-benzylpiperidin-4-yl)propyl)-4-(7-ethyl-4-oxo-4H-chromen-3-yl)-6-methyl-2-oxo-1,2,3,4-tetrahydropyrimidine-5-carboxylate] | 1.4 ± 0.5 |  |  |  |  |  | CNS (-) |  |
